This is an account of results in ChEMBL document CHEMBL4483862, “Open-source discovery of chemical leads for next-generation chemoprotective antimalarials” (2018).

The pIC50 is −log10 of the IC50, conventionally taken in molar units. The IC90 is the concentration needed for an effect of 90%.

pIC50: −log10 of the molar value.

The test system of this test is Plasmodium berghei. Put plainly: Luciferase/luciferin-expressing antifolate-resistant parasites were used to infect a culture of HepG2 cells that were pre-incubated with compounds. Infected hepatocytes emit light due to the luciferase reaction. Assay results are presented as the percent inhibition of light emission compared to control. […]. It counts as functional. As to conditions: sporozoite; for IC90: read-out: LUCIFERASE INFECTION ASSAY - IC90.

Setting [1] is: read-out: LUCIFERASE INFECTION ASSAY - IC50.

For the compound `O=C1NC2(CCc3ccccc32)C(=O)N1Cc1cc2ccccc2nc1Cl` (centres undefined), the IC90 is greater than 10 µM. Besides, the pIC50 (HEPG2TOX_HILL_SLOPE 1.06, HEPG2TOX_R_SQUARED 0.864, read-out: LUCIFERASE INFECTION ASSAY - IC50) was less than 5.00.

For `Fc1ccc(COc2ccc3ccccc3c2CNCc2ccccn2)cc1`, the IC90 is greater than 8.86 µM. Also, the pIC50 (PBLUC_HILL_SLOPE 18.6, PBLUC_R_SQUARED 0.616, read-out: LUCIFERASE INFECTION ASSAY - IC50) was 5.09.

Regarding `Cc1ccc(-c2nc(NC(=O)c3ccn(C)c(=O)c3)sc2-c2ccc(C)cc2)cc1`, the IC90 was 5.86 µM. Also, the pIC50 (HEPG2TOX_HILL_SLOPE 6.56, HEPG2TOX_R_SQUARED 0.678, PBLUC_HILL_SLOPE 73.6, 3.22, PBLUC_R_SQUARED 0.772, 0.348, read-out: LUCIFERASE INFECTION ASSAY - IC50) was 5.42.

For the compound `CCOC(=O)c1sc2nc(C)nc(N(C)Cc3ccccc3)c2c1C`, the IC90 is greater than 10 µM. Besides, for the setting “PBLUC_HILL_SLOPE 1.75, PBLUC_R_SQUARED 0.422, read-out: LUCIFERASE INFECTION ASSAY - IC50”, the negative-log IC50 (pIC50) is 5.10.

`O=C(Nc1nc2c(s1)CCC2)c1cnn(-c2ccccc2)c1C1CC1`: the IC90 came out at 0.405 µM. Further, the negative logarithm of the IC50 (pIC50) (FFLUC_HILL_SLOPE 2.39, FFLUC_R_SQUARED 0.896, PBLUC_HILL_SLOPE 0.607, PBLUC_R_SQUARED 0.989, read-out: LUCIFERASE INFECTION ASSAY - IC50) was 7.97.

`CN(Cc1nc2ccccc2s1)C(=O)CSc1nnc(N2CCCCC2)n1-c1ccccc1`: the IC90 is greater than 10 µM. For the same compound, the pIC50 under setting [1] was less than 5.00.

Consider `CN(CC(=O)Nc1ccc(F)c(F)c1F)c1cnccn1`, for which the IC90 is greater than 10 µM. Also, the pIC50 under setting [1] was less than 5.00.

`CCN(C(=O)CSc1nc2cc(C(=O)O)ccc2c(=O)n1Cc1ccccc1)c1ccccc1`: the IC90 was greater than 10 µM. For the same compound, the pIC50 under setting [1] was less than 5.00.

On to `O=C(c1cnc2nc(N3CCCCC3)sc2c1)c1ccccc1O`, for which the IC90 was greater than 10 µM. The pIC50 under setting [1] was 5.22.

Turning to `CS(=O)(=O)Nc1cccc(-c2cnc(N)c(-c3cccc(C(F)(F)F)c3)c2)c1`, the IC90 came out at 0.0724 µM. Further, the pIC50 (HEPG2TOX_HILL_SLOPE 0.275, HEPG2TOX_R_SQUARED 0.333, PBLUC_HILL_SLOPE 1.7, PBLUC_R_SQUARED 0.794, read-out: LUCIFERASE INFECTION ASSAY - IC50) was 7.70.

On to `O=C1OC(C23CC4CC(CC(C4)C2)C3)=N/C1=C\c1ccc(N2CCOCC2)cc1`, for which the IC90 is greater than 10 µM. Further, the pIC50 under setting [1] was less than 5.00.

Turning to `CC1=NN(c2ccc(C)cc2)C(=O)C1=C1SCCS1`, the IC90 was greater than 11.4 µM. The pIC50 under setting [1] is 5.70.

In the case of `CNC(=O)c1cccc(NC(=O)c2cc(Cl)c[nH]2)c1`, the IC90 is greater than 10 µM. In addition, under setting [1], the pIC50 is less than 5.00.

As for `COc1ccccc1NC1=C(Cl)C(=O)c2ccccc2C1=O`, the IC90 came out at 8.17 µM. Further, the pIC50 (FFLUC_HILL_SLOPE 2.43, FFLUC_R_SQUARED 0.19, HEPG2TOX_HILL_SLOPE 11.1, HEPG2TOX_R_SQUARED 0.994, PBLUC_HILL_SLOPE 1.56, PBLUC_R_SQUARED 0.76, read-out: LUCIFERASE INFECTION ASSAY - IC50) is 5.70.

As for `CCN(CC)CCN1COc2c(cc(Cl)c3cccnc23)C1`, the IC90 was found to be 4.94 µM. In addition, where the note is “HEPG2TOX_HILL_SLOPE 1.86, HEPG2TOX_R_SQUARED 0.951, PBLUC_HILL_SLOPE 8.52, PBLUC_R_SQUARED 0.457, read-out: LUCIFERASE INFECTION ASSAY - IC50”, the pIC50 was 5.42.

On to `O=C(CN1CCN(Cc2nc3ccccc3s2)CC1)N1CCc2ccccc21`, for which the IC90 is greater than 10 µM. Moreover, the pIC50 under setting [1] is less than 5.00.

Regarding `O=C(Nc1ccc(Oc2ccccc2)cc1)c1csc(C(O)c2cccc(OC(F)(F)F)c2)n1` (centres undefined), the IC90 came out at 5.15 µM. Further, the pIC50 (HEPG2TOX_HILL_SLOPE 1.57, HEPG2TOX_R_SQUARED 0.929, PBLUC_HILL_SLOPE 3.6, PBLUC_R_SQUARED 0.22, read-out: LUCIFERASE INFECTION ASSAY - IC50) is 5.55.

`O=C(CN1CCN(C/C=C/c2ccccc2)CC1)NC(c1ccccc1)c1ccccc1`: the IC90 is greater than 10 µM. Moreover, the pIC50 under setting [1] was less than 5.00.

For the compound `COc1ccc(-c2nc(NC(=O)CCc3ccc4c(c3)OCO4)sc2C)cc1`, the IC90 was greater than 10 µM. The pIC50 (PBLUC_HILL_SLOPE 15.2, PBLUC_R_SQUARED 0.468, read-out: LUCIFERASE INFECTION ASSAY - IC50) is 5.05.

As for `CCCCn1c(=O)[nH]c(=O)c2c1nc(-c1ccc(C)c([N+](=O)[O-])c1)n2CC`, the IC90 is 3.73 µM. For the same compound, for the setting “PBLUC_HILL_SLOPE 20.6, PBLUC_R_SQUARED 0.559, read-out: LUCIFERASE INFECTION ASSAY - IC50”, the pIC50 is 5.47.

Consider `CC1(CCc2ccccc2)NCC(c2ccc(Cl)cc2Cl)c2c1[nH]c1ccccc21` (centres undefined), for which the IC90 is greater than 10 µM. The pIC50 (FFLUC_HILL_SLOPE 44.6, FFLUC_R_SQUARED 0.534, read-out: LUCIFERASE INFECTION ASSAY - IC50) is less than 5.00.

As for `Cc1cccc(Nc2nc(S(=O)(=O)c3ccc(Cl)cc3)c(Cl)s2)c1`, the IC90 is greater than 10 µM. Moreover, the pIC50 (HEPG2TOX_HILL_SLOPE 2.2, HEPG2TOX_R_SQUARED 0.986, PBLUC_HILL_SLOPE 2.95, PBLUC_R_SQUARED 0.805, read-out: LUCIFERASE INFECTION ASSAY - IC50) is 5.29.

For the compound `O=C(CSc1nncn1C1CC1)Nc1sc2c(c1C(=O)Nc1ccc(Cl)cc1)CCCC2`, the IC90 was greater than 10 µM. For the same compound, the pIC50 under setting [1] is less than 5.00.

Consider `Cc1cc(C2=NN/C(=N/C3CC3)SC2)c(C)n1-c1cccc(S(=O)(=O)N2CCOCC2)c1`, for which the concentration for an effect of 90% (IC90) was greater than 10 µM. The pIC50 (PBLUC_HILL_SLOPE 11.7, PBLUC_R_SQUARED 0.69, read-out: LUCIFERASE INFECTION ASSAY - IC50) was 5.03.

As to `CCNC(=S)N/N=C1\C(=O)Nc2ccc(C(C)C)cc21`, the IC90 turned out to be 7.94 µM. In addition, under setting [1], the pIC50 was 5.38.

With `CC(=O)c1ccc(C#Cc2ccccc2)s1`, the 90% effect concentration (IC90) was greater than 14.6 µM. Also, the pIC50 under setting [1] was less than 4.84.

In the case of `O=C(Cc1cc(Br)sc1Br)Nc1cccc(C(F)(F)F)c1`, the IC90 was greater than 7.45 µM. The negative logarithm of the IC50 (pIC50) under setting [1] is less than 5.13.

In the case of `FC(F)Sc1ccc(NC(=S)NCC(c2ccco2)N2CCCCC2)cc1` (centres undefined), the IC90 was greater than 10 µM. Also, the pIC50 under setting [1] was 5.21.

Turning to `COCCCn1c(Sc2ncnc3sc4c(c23)CCC4)nc2sc3c(c2c1=O)CCC3`, the IC90 was greater than 10 µM. For the same compound, the pIC50 under setting [1] is less than 5.00.

Take `CCCCNC(=O)c1c(NC(=O)c2cccc(C(F)(F)F)c2)nc2ccc(C)cn12`: the IC90 is 1 µM. The pIC50 (FFLUC_HILL_SLOPE 2.04, FFLUC_R_SQUARED 0.518, HEPG2TOX_HILL_SLOPE 1.13, HEPG2TOX_R_SQUARED 0.759, PBLUC_HILL_SLOPE 2.77, PBLUC_R_SQUARED 0.788, read-out: LUCIFERASE INFECTION ASSAY - IC50) was 6.34.

With `CCOc1ccc(C=C(c2nc3ccccc3s2)c2nc3ccccc3s2)cc1OC`, the IC90 was 4.51 µM. Also, for the setting “HEPG2TOX_HILL_SLOPE 4.58, HEPG2TOX_R_SQUARED 0.874, PBLUC_HILL_SLOPE 9.07, PBLUC_R_SQUARED 0.629, read-out: LUCIFERASE INFECTION ASSAY - IC50”, the pIC50 is 5.45.

For the compound `N#CN=c1nc(/C=C/c2ccc(Br)cc2)[nH]c(-c2ccccc2O)n1`, the IC90 amounted to 5.46 µM. For the same compound, where the note is “FFLUC_HILL_SLOPE 1.52, FFLUC_R_SQUARED 0.887, PBLUC_HILL_SLOPE 1.8, PBLUC_R_SQUARED 0.711, read-out: LUCIFERASE INFECTION ASSAY - IC50”, the pIC50 was 5.79.

On to `O=c1c2ccccc2nc(SCc2coc(-c3cccs3)n2)n1-c1ccc(Cl)cc1`, for which the IC90 was greater than 10 µM. Besides, the pIC50 under setting [1] was less than 5.00.

`Cc1sc2ncn(/N=C/c3ccc(N(c4ccccc4)c4ccccc4)cc3)c(=O)c2c1C`: the IC90 is 4.02 µM. The pIC50 (FFLUC_HILL_SLOPE 0.996, FFLUC_R_SQUARED 0.715, HEPG2TOX_HILL_SLOPE 1.1, HEPG2TOX_R_SQUARED 0.992, PBLUC_HILL_SLOPE 2.81, PBLUC_R_SQUARED 0.433, read-out: LUCIFERASE INFECTION ASSAY - IC50) was 5.74.

In the case of `CCC1c2ccsc2CCN1C(=O)C1CCN(S(=O)(=O)c2ccc(Cl)c([N+](=O)[O-])c2)CC1` (centres undefined), the IC90 is greater than 10 µM. For the same compound, the negative-log IC50 (pIC50) under setting [1] is less than 5.00.

`CCCn1nc(C(=O)N2CC(C)CC(C)C2)ccc1=O` (centres undefined): the IC90 is greater than 10 µM. The pIC50 under setting [1] was less than 5.00.

Regarding `O=C(Nc1ncccc1O)c1ccc(-c2ccccc2)cc1`, the IC90 was found to be 8 µM. In addition, under setting [1], the pIC50 was 5.34.

Regarding `CC(C)(C)NC(=S)N/N=C/c1c(O)ccc2ccccc12`, the IC90 is 6.74 µM. The pIC50 under setting [1] is 5.53.

Consider `Cc1oc2c(c1C(=O)N1CCN(c3ccc(F)cc3)CC1)C(=O)c1ccccc1C2=O`, for which the IC90 is greater than 10 µM. Moreover, the pIC50 (PBLUC_HILL_SLOPE 2.38, PBLUC_R_SQUARED 0.395, read-out: LUCIFERASE INFECTION ASSAY - IC50) is 5.38.

As for `CNC(=O)c1ccc(CN(C2CC2)S(=O)(=O)c2ccc(C(F)(F)F)cc2)cc1`, the IC90 is greater than 10 µM. Further, the pIC50 (PBLUC_HILL_SLOPE 1.42, PBLUC_R_SQUARED 0.391, read-out: LUCIFERASE INFECTION ASSAY - IC50) was 5.48.

On to `Cc1nc2nc(-c3ccccc3)nn2c(N2CCCC2)c1Cc1ccccc1`, for which the IC90 is greater than 8.93 µM. In addition, the pIC50 under setting [1] was 5.48.

As to `Cc1ccc(C(=N)NOC(=O)c2cccc(Cn3cc(C(F)(F)F)ccc3=O)c2)cc1`, the IC90 is greater than 7.69 µM. The negative logarithm of the IC50 (pIC50) under setting [1] is less than 5.11.
